Source: US20240108740A1, “THERAPEUTIC COMPOSITIONS INCLUDING SPN10 AND USES THEREOF” (Stealth BioTherapeutics Inc., priority 2022, published 2024)
Residues, ends and D or L forms follow the SMILES beside them.

How the values were obtained:
transplant patients = assay: Cyclosporine nephrotoxicity and organ health in transplant patients; type: in vivo, human; conditions: subjects receiving cyclosporine
Source text: To prevent organ or tissue rejection after transplant, patients often receive a regimen of the immunosuppressive drug cyclosporine. Cyclosporine levels are established and maintained in the subject at levels to effectively suppress the immune system. However, nephrotoxicity is a concern for these subjects, and the level of the drug in the subject's blood is monitored carefully. Cyclosporine doses are adjusted accordingly in order to not only prevent rejection, but also to deter these potentially damaging side effects. Typically, an adult transplant patient receives cyclosporine as follows: IV: 2 to 4 mg/kg/day IV infusion once daily over 4 to 6 hours, or 1 to 2 mg/kg IV infusion twice a day over 4 to 6 hours, or 2 to 4 mg/kg/day as a continuous IV infusion over 24 hours. Capsules: 8 to 12 mg/kg/day orally in 2 divided doses. Solution: 8 to 12 mg/kg orally once daily. In some patients, doses can be titrated downward with time to maintenance doses as low as 3 to 5 mg/kg/day. […]
Transplant subjects receiving cyclosporine pursuant to standard pre- and post-transplant procedures will be divided into groups. […] Subjects will be monitored for health and function of the transplanted tissue or organ, as well as the incidence and severity of nephrotoxicity often seen with prolonged cyclosporine administration.

[1] = test system: anatomic zone of no-reflow; assay: No re-flow phenomenon after PCI in humans; type: in vivo, human; conditions: at the time of reperfusion
Method: Study group. Men and women, 18 years of age or older, who present within 6 hours after the onset of chest pain, who have ST-segment elevation of more than 0.1 mV in two contiguous leads, and for whom the clinical decision is made to treat with PCI will be eligible for enrollment. Patients will be eligible for the study whether they are undergoing primary PCI or rescue PCI. Occlusion of the affected coronary artery (Thrombolysis in Myocardial Infarction [TIMI] flow grade 0) at the time of admission will also be a criterion for inclusion. Angiography and Revascularization. Left ventricular and coronary angiography will be performed with the use of standard techniques, just before revascularization. […] No re-flow will be assessed by one or more imaging techniques. Re-flow phenomenon will be assessed using myocardial contrast echocardiography, coronary angiography, myocardial blush, coronary doppler imaging, electrocardiography, nuclear imaging single-photon emission CT, using thallium or technetium-99 m, or PET. […] Post-contrast delayed enhancement will be used on day 4±1, day 30±3 and 6+1.5 months after successful PCI and stenting to quantify infracted myocardium. This will be defined quantitatively by an intensity of the myocardial post-contrast signal that is more than 2 SD above that in a reference region of remote, non-infarcted myocardium within the same slice. […]

[2] = test system: isolated mouse liver mitochondria; assay: Example 19: H2O2 production by isolated mitochondria (luminol chemiluminescence); conditions: AUC over 20 min
Method: Livers will be harvested from mice, homogenized in ice-cold buffer, and centrifuged at 13800×g for 10 min. The pellet will be washed once, re-suspended in 0.3 mL of wash buffer, and placed on ice until use. H2O2 will be measured using luminol chemiluminescence as described previously (Li, et al., Biochim. Biophys. Acta 1428:1-12 (1999). 0.1 mg mitochondrial protein will be added to 0.5 mL potassium phosphate buffer (100 mM, pH 8.0) in the presence of vehicle, peptide conjugates, SPN10(s) alone or in combination with aromatic-cationic peptides, or aromatic-cationic peptides. […] luminol and 0.7 IU horseradish peroxidase will be added, and chemiluminescence will be monitored with a Chronolog Model 560 aggregometer (Havertown, PA) for 20 minutes at 37° C. The amount of H2O2 produced will be quantified as the area under the curve (AUC) over 20 min, and all data will be normalized to AUC produced by mitochondria alone.

## N=C(N)NCCC[C@H](NC(=O)[C@@H](N)Cc1c[nH]c2ccccc12)C(=O)N[C@@H](Cc1c[nH]c2ccccc12)C(=O)N[C@@H](CCCCN)C(N)=O [SPN10, H-L-Trp-L-Arg-L-Trp-L-Lys-NH2] (H-WRWK-NH2)
Transplant patients
  health of transplanted organ or tissue, cyclosporine dosage maintained: healthier transplanted organ or tissue
[1]
  anatomic zone of no-reflow versus placebo: smaller
[2]
  amount of H2O2 production: significantly reduced
